“Also recorded” adds a separate entry of the source.
Key:
[1] = system: cortico-TRN synapses; experiment: Optogenetically evoked EPSCs in patched TRN neurons, cortico-TRN pathway; type: cell-based, mice; details: cortico-TRN synapses, before vs after bath application
Experimental: (§1) For conducting slice electrophysiology analysis, whole-cell patch-clamp recordings were performed using horizontal slices for the rebound bursting assays and angled-coronal thalamocortical slices for the synaptic optogenetics experiments (Agmon et al., 1991). 21-35 day old male C57BL6 mice and Ptchd1 Y/− (knockout) mice were used. Animals were transcardially perfused under isoflurane anesthesia with an ice-cold cutting solution (194 mM Sucrose, 30 mM NaCl, 4.5 mM KCl, 1.2 mM NaH2PO4, 10 mM Glucose, 2 mM MgCl2, 0.2 mM CaCl2, and 26 mM NaHCO3). Mice were then decapitated and the brains were carefully dissected out. Both cerebellum and olfactory bulb were removed from the brain and were placed and glued onto the stage of a Leica Vibratome with the ventral surface down and the pial surface towards the blade. 250 micron thick slices containing the TRN were then collected and recovered in regular artificial cerebrospinal fluid (aCSF; 119 mM NaCl, 2.3 mM KCl, 1 mM NaH2PO4; 11 mM Glucose, 1.3 mM MgCl2, 2.5 mM CaCl2), 26 mM NaHCO3) heated to 32° C. for 10 minutes and then at room temperature for at least 1 hr. All buffers were continuously bubbled with 95% O2/5% C02. Slices were then transferred to a submersion recording chamber where they were perfused with aCSF at a rate of 2 ml/min at room temperature. Patch recording pipettes were pulled using a Flaming/Brown micropipette puller (Sutter Instruments) and Borosilicate glass (KG33, King Precision Glass). The DC resistances were ˜4-6 MΩ. Potassium methanesulfonate based internal solution (140 mM KMeSO3; 10 mM KCl; 10 mM HEPES; 0.1 mM EGTA; 4 mM Mg-ATP; 0.2 mM Na-GTP; 10 mM hosphocreatine) was used. Neurons were visualized using infrared differential interference contrast (IR-DIC) microscopy (Olympus, BX51W1) with an upright microscope digital camera.
To study the changes in the acute somatosensory thalamocortical or horizontal brain areas, 21-25 days old Nex-Cre or VgluT2-Cre mice were anesthetized with isoflurane while placed in a small animal stereotaxic apparatus (David Kopf Instruments, CA, USA) and were injected bilaterally with 280 nl of mcherry-dflox.hChR2.EF1.AAV1 using a Nanoject (Drummond Scientific, Broomall, Pa.) via glass pipettes with […] diameter tips in somatosensory cortex (S1) and ventrobasal thalamic complex (VB). Coordinates from the bregma for S1: AP −0.7, ML 2.4 and DV 1.2 and for VB: AP −1.6, ML 1.5 and DV 3.5. The pipette was held in the final position for 10 min after injection before withdrawal from the brain. The incision was closed with vetbond and after surgery mice were injected with analgesics (SR-Bupronex 1 mg/kg) every 72 hours or as needed. […]
(§2) After allowing 1-2 weeks for mcherry-dflox.hChR2.EF1.AAV1 expression, acute somatosensory thalamocortical or horizontal brain slices were freshly obtained for in vitro recording and optogenetic stimulation (250 um thick, thalamocortical slices containing TRN from angled-coronal sections; Agmon and Connors, 1991) for optogenetic analysis. In brief, patch clamp recordings in voltage clamp configuration were performed while the Cortico-TRN or Thalamic-TRN pathway was activated by applying a blue LED (400-450 nm) light pulses (Lumen 300-LED Fluorescence Excitation Illumination System). For synaptic stimulation, neurons were held at −70 mV while 0.1-1.5 ms flashes were delivered directly to the recorded cell soma delivered through the 40× water immersion objective. […]

[2] = system: thalamo-TRN synapses; experiment: Optogenetically evoked EPSCs in patched TRN neurons, thalamo-TRN pathway; type: cell-based, mice; details: thalamo-TRN synapses, before vs after bath perfusion
Experimental: as §1, with “camera. […]” for “camera.”
as §2

[3] = system: WT mice; experiment: Open field test of locomotor activity, WT mice; type: in vivo
Experimental: (§3) For performing the open field test, mice were allowed to habituate to the behavioral testing room for 1 hour before the experiment. The locomotor activity in mice was evaluated over a 90 minute period in an automated Omnitech Digiscan apparatus (AccuScan Instruments). Locomotor activity was assessed as total distance traveled (m). For drug treatment experiments, mice received an intraperitoneal injection 15 minutes before the assay and then where placed kindly in the left corner, head facing into the corner.
(§4) The effects of mGluR2/3 activation on the locomotor activity of WT mice and Ptchd1 mutant mice were evaluated. In brief, all mice were treated with mGluR2/3 agonist, LY379268, at three different dosages (1 mg/kg, 5 mg/kg and 10 mg/kg) for open-field testing.
(§5) Here, whether mGluR3 activation would rescue the hyperactivity phenotype of Ptchd1 KO mice was evaluated. Locomotor activity estimated as total distance travelled (in) was assessed over a 90 min period in an automated Omnitech Digiscan apparatus. For drug treatment experiments, mice were placed in the open-field arena for 30 minutes prior to Mavalon 63 (5 mg/kg and 10 mg/kg in saline; i.p.), or vehicle injections before being returned to the arena.

[4] = system: Ptchd1 KO mice; experiment: Open field test of locomotor activity, Ptchd1 KO mice; type: in vivo
Experimental: as §3, §4, §5

[5] = system: WT TRN neurons; experiment: Whole-cell patch-clamp rebound burst firing in acute brain slices, WT mice; type: cell-based
Experimental: as §1
The recordings were made with a microelectrode amplifier with bridge and voltage clamp modes of operation (Multiclamp 700B, Molecular Devices, San Jose, Calif., USA). Signals were low-pass filtered at 2 kHz and sampled at 10-20 kHz with a Digidata 1440A (Molecular Devices, San Jose, Calif., USA). Data were stored on a computer for subsequent off-line analysis. Cells with the series resistance (Rs, typically 8-12 MΩ) changed by >20% were excluded for data analysis. In addition, cells with Rs more than […] at any time during the recordings were discarded.

[6] = system: Ptchd1 KO TRN neurons; experiment: Whole-cell patch-clamp rebound burst firing in acute brain slices, Ptchd1 KO mice; type: cell-based; details: Mavalon 63
Experimental: as §1, with “Patch recording pipettes were pulled using a Flaming/Brown micropipette puller (Sutter Instruments) and Borosilicate glass (KG33, King Precision Glass). The DC resistances were ˜4-6 MΩ. Potassium methanesulfonate based internal solution (140 mM KMeSO3; 10 mM KCl; 10 mM HEPES; 0.1 mM EGTA; 4 mM Mg-ATP; 0.2 mM Na-GTP; 10 mM hosphocreatine) was used. Neurons were visualized using infrared differential interference contrast (IR-DIC) microscopy (Olympus, BX51W1) with an upright microscope digital camera.” left out

[7] = system: wild type mice; experiment: EEG/EMG sleep recording, WT mice; type: in vivo; details: Mavalon 63 10 mg/kg ip, 12 h recordings, 10 mg/kg
Text: For EEG recording studies, 8- to 12-week-old male mice with C57Bl/6J background, Ptchd1Y/− (knockout) and Ptchd1Y/+ (wild type) were deeply anesthetized with a 1% to 1.5% isoflurane. A screw electroencephalography (EEG) electrode (catalog no. 8403; Pinnacle Technology, Inc.) was implanted into the skull above the primary somatosensory cortex, S1 (AP: −1.8 and ML: +3.0 mm) using a stereotaxic device (David Kopf Instruments). A reference electrode was screwed in the occipital region of the skull and stainless steel electromyography (EMG) electrodes were placed in the nuchal muscle. All the electrodes were connected to a head-mount (catalog no. 8201-SS; Pinnacle Technology) and secured by using dental cement. The mice were allowed to recover for at least 2 weeks. Spontaneous EEG/EMG signals were recorded for 12 hours with a differential amplifier (8200-K1-SL amplifier; Pinnacle Technology). […] Data were analyzed offline using Matlab (R2016a; MathWorks). The spectral power was calculated in 0.5-Hz bins (fast Fourier transform with Hamming window) with artifact-free 4-hour EEG signals from each animal. […]
(§6) EEG and EMG from the frontal and parietal cortex and from the nuchal muscular complex were simultaneously recorded.
(§7) Surface electroencephalography (EEG) and electromyography (EMG) from the frontal and parietal cortex and from the nuchal muscular complex were simultaneously recorded.

[8] = system: Ptchd1 KO mice; experiment: EEG/EMG sleep recording, Ptchd1 KO mice; type: in vivo; details: Ptchd1 KO mice, Mavalon 63 10 mg/kg ip, 12 h recordings; 10 mg/kg
Text: For EEG recording studies, 8- to 12-week-old male mice with C57Bl/6J background, Ptchd1Y/− (knockout) and Ptchd1Y/+ (wild type) were deeply anesthetized with a 1% to 1.5% isoflurane. A screw electroencephalography (EEG) electrode (catalog no. 8403; Pinnacle Technology, Inc.) was implanted into the skull above the primary somatosensory cortex, S1 (AP: −1.8 and ML: +3.0 mm) using a stereotaxic device (David Kopf Instruments). A reference electrode was screwed in the occipital region of the skull and stainless steel electromyography (EMG) electrodes were placed in the nuchal muscle. All the electrodes were connected to a head-mount (catalog no. 8201-SS; Pinnacle Technology) and secured by using dental cement. The mice were allowed to recover for at least 2 weeks. Spontaneous EEG/EMG signals were recorded for 12 hours with a differential amplifier (8200-K1-SL amplifier; Pinnacle Technology). All signals were digitized at a sampling frequency of 1,000 Hz, filtered (1-100 Hz bandpass for EEG; 10-1 kHz bandpass for EMG), and acquired using Sirenia Acquisition program (Pinnacle Technology). Data were analyzed offline using Matlab (R2016a; MathWorks). The spectral power was calculated in 0.5-Hz bins (fast Fourier transform with Hamming window) with artifact-free 4-hour EEG signals from each animal. The power for the spectral band was normalized in reference to the power of the entire EEG spectrum (1-100 Hz) in each animal and averaged across all the animals in the same treatment or drug condition.
as §6, §7

Compound | paired-pulse ratio (PPR) [1] | paired-pulse ratio (PPR) [2] | locomotor activity ([3]; WT mice, AZD8529 three dosing levels i.p., 90 minutes) | locomotor activity ([4]; AZD8529 10, 20, 50 mg/Kg i.p., 90 minutes) | rebound burst firing, occlusion experiment ([5]; LY379268 applied in the presence of (after pretreatment with) ML337) | number of rebound burst firings ([5]; TRN neurons, ML337 5 μM bath application alone) | number of rebound burst firings ([5]; WT TRN neurons, Mavalon 63 in bath, after somatic hyperpolarization pulse, holding potentials −80 mV to −50 mV) | repetitive rebound bursting [6] | paired-pulse ratio (PPR) ([1]; listed as mGluR3 PAM) | paired-pulse ratio (PPR) ([2]; listed as mGluR3 PAM) | length of NREM sleep bout [7] | length of NREM sleep bout [8] | locomotor activity (total distance travelled) ([3]; WT mice, Mavalon 63 5 mg/kg and 10 mg/kg i.p., 90 min) | spontaneous locomotion activity ([3]; wild type mice, Mavalon 63 30 mg/kg i.p.) | locomotor activity (total distance travelled) ([4]; Mavalon 63 5 mg/kg and 10 mg/kg i.p., 90 min) | locomotor activity (hyperactivity) ([4]; Mavalon 63 30 mg/kg i.p., p=0.06, Bonferroni's multiple comparisons test) | hyperactivity phenotype, summary over doses ([4]; Mavalon 63 5, 10, 30 mg/Kg i.p., dose-dependent manner)
Cc1cc(-c2nc(CN3CCNCC3)no2)cc2c1C(=O)N(Cc1ccc(OC(F)(F)F)cc1)C2 [AZD8529, 1H-Isoindol-1-one, 2,3-dihydro-7-methyl-5-[3-(1-piperazinylmethyl)-1,2,4-oxadiazol-5-yl]-2-[[4-(trifluoromethoxy)phenyl]methyl]-] | significant increase in the paired-pulse ratio (PPR); also recorded: significantly increased | no significant changes in the size of PPR | reduced locomotor activity | reduced locomotor activity |  |  |  |  |  |  |  |  |  |  |  |  | 
COc1ccc(C#Cc2ccc(C(=O)N3CCC[C@@H](O)C3)c(F)c2)cc1 [ML337, (R)-(2-fluoro-4-((- 4-methoxy-phenyl)ethynyl)phenyl) (3-hydroxypiperidin-1-yl)methanone] |  |  |  |  | blocked LY379268-induced enhancement of rebound bursting | decrease in the repetitive rebound bursting; also recorded: reduces the repetitive burst firings; also recorded: number of rebound burst firing was reduced |  |  |  |  |  |  |  |  |  |  | 
CN1C(=O)c2cccn2-c2cc(-c3ccc(F)cn3)ccc2C12CC2 [Mavalon 63, 5-Methyl-9-(5-fluoropyridin-2-yl)-spiro [benzo[f]pyrrolo[1,2-a][1,4]diazepine-6,1′-cyclopropan]-4(5H)-one] | not significantly increased | no significant changes in the size of PPR |  |  |  |  | significant increase in repetitive rebound bursting; also recorded: increase in the number of rebound burst firings; also recorded: Significant changes were detected at a membrane holding potentials between −70 mV and −60 mV | significant increase in repetitive rebound bursting | No significant changes in PPR | no significant changes in the PPR | no change was observed | specifically increased the Non-REM (NREM) sleep bout length; also recorded: increased the length of NREM sleep bout | no significant effect on locomotor activity | No effect on the spontaneous locomotion activity | no significant effect on locomotor activity | trend of reducing the hyperactivity | able to normalize the hyperactivity phenotype

Source: patent US20220313650A1, “METHODS FOR TREATING NEURODEVELOPMENTAL DISORDERS” (The Broad Institute, Inc., priority 2019, published 2022)
